Data from ChEMBL document CHEMBL4420076, “Amylin and calcitonin receptor agonist” (2017).
Numbered stars: 1 amine (or outer) side, 2 acyl side, 3 side chain; on linkers, the order of the positions; unused ones are H or OH. Peptide text beside a SMILES is read from it. * marks the point of attachment. C18 diacid = O=C(O)CCCCCCCCCCCCCCCCC(=O)*; γGlu = O=C(O)[C@H](CCC(=O)[*:2])N[*:1]; Palmitoyl = CCCCCCCCCCCCCCCC(=O)*

Tests used:
[1] = Solubility in 100 mM bistrispropane buffer at pH 8.0 incubated for 18 hrs by UPLC analysis; format: physicochemical
[2] = Solubility in 100 mM glycylglycine buffer at pH 5.0 incubated for 18 hrs by UPLC analysis; format: physicochemical
[3] = target: T1, Amylin receptor AMY3; CALCR/RAMP3 (Homo sapiens, UniProt O60896+P30988); test: Displacement of [125I]-labeled rat amylin from human amylin receptor expressed in BHK tkts13 whole cells co-expressing RAMP3 incubated for 60 mins by scintillation proximity assay; format: cell-based
T1 sequence (P30988 whole entry): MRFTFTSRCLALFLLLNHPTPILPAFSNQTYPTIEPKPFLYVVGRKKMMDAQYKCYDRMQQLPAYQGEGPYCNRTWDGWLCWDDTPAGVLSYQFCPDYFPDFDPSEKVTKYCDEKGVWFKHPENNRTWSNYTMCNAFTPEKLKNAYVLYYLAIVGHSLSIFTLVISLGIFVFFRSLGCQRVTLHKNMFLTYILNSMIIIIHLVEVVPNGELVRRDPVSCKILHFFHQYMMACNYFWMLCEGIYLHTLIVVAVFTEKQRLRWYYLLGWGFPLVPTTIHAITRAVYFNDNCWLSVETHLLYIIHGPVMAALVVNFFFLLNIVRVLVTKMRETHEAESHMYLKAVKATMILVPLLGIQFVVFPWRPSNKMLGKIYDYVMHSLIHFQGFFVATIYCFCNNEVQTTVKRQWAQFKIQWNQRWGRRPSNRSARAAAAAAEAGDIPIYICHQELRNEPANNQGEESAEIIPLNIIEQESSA
T1 sequence (O60896 whole entry): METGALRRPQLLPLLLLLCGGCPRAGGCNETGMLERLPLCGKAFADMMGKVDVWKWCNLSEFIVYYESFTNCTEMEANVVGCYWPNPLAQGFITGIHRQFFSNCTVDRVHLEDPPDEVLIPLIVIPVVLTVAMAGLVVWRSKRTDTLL

[4] = Solubility in 100 mM glycylglycine buffer at pH 3.0 incubated for 18 hrs by UPLC analysis; format: physicochemical
[5] = Solubility in 100 mM bistrispropane buffer at pH 7.0 incubated for 18 hrs by UPLC analysis; format: physicochemical
[6] = Solubility in 100 mM glycylglycine buffer at pH 4.0 incubated for 18 hrs by UPLC analysis; format: physicochemical
[7] = Solubility in 100 mM bistrispropane buffer at pH 6.5 incubated for 18 hrs by UPLC analysis; format: physicochemical
Calcitonin receptor = target: T2, Calcitonin receptor (Homo sapiens, UniProt P30988); test: Agonist activity at human calcitonin receptor expressed in BHK570 cells assessed as increase in intracellular cAMP concentration incubated for 3 hrs in absence of albumin by CRE luciferase reporter gene assay; format: functional, cell-based
T2 sequence (P30988 whole entry): T1 sequence (P30988 whole entry)

[8] = Solubility in 100 mM bistrispropane buffer at pH 6.0 incubated for 18 hrs by UPLC analysis; format: physicochemical
[9] = target: T1, Amylin receptor AMY3; CALCR/RAMP3; test: Agonist activity at human amylin receptor expressed in BHK570 cells co-expressing RAMP3 assessed as increase in intracellular cAMP concentration incubated for 3 hrs in absence of albumin by CRE luciferase reporter gene assay; format: functional, cell-based
[10] = Solubility in 100 mM bistrispropane buffer at pH 7.5 incubated for 18 hrs by UPLC analysis; format: physicochemical

SMILES	solubility at 18 h [1]	solubility at 18 h [2]	IC50 [3]	solubility at 18 h [4]	solubility at 18 h [5]	solubility at 18 h [6]	solubility at 18 h [7]	EC50 (Calcitonin receptor)	solubility at 18 h [8]	EC50 [9]	solubility at 18 h [10]
CC[C@H](C)[C@H](NC(=O)[C@H](C)NC(=O)[C@@H](NC(=O)[C@H](CO)NC(=O)[C@@H](NC(=O)[C@H](CCC(=O)O)NC(=O)[C@H](CO)NC(=O)[C@H](C)NC(=O)[C@H](CCC(=O)O)NC(=O)CCCCCCCCCCCCCCCCC(=O)O)[C@@H](C)CC)[C@@H](C)O)C(=O)N[C@H](C(=O)NCC(=O)N[C@@H](CCCNC(=N)N)C(=O)N[C@@H](CC(C)C)C(=O)N[C@@H](CO)C(=O)N[C@@H](C)C(=O)N[C@@H](CCC(=O)O)C(=O)N[C@@H](CC(C)C)C(=O)N[C@@H](Cc1cnc[nH]1)C(=O)N[C@@H](CCC(=O)O)C(=O)N[C@H](C(=O)N[C@@H](C)C(=O)N[C@H](C(=O)N[C@@H](CC(C)C)C(=O)N1CCC[C@H]1C(=O)N[C@@H](CCCNC(=N)N)C(=O)N[C@H](C(=O)N[C@@H](CCC(=O)O)C(=O)N[C@H](C(=O)NCC(=O)N1CCC[C@H]1C(=O)N[C@@H](CCC(=O)O)C(=O)N[C@@H](CO)C(=O)N1CCC[C@H]1C(N)=O)[C@@H](C)O)[C@@H](C)O)[C@@H](C)O)[C@@H](C)CC)[C@@H](C)CC ({C18 diacid}-EASEISTAIIGRLSAELHEIATLPRTETGPESP-NH2)	≥ 200 µM	–	0.998 nM	≥ 200 µM	≥ 200 µM	–	≥ 200 µM	0.006 nM	≥ 200 µM	0.01 nM	≥ 200 µM
CC(C)C[C@H](NC(=O)[C@H](C)NC(=O)[C@H](C)NC(=O)[C@@H](NC(=O)[C@H](CO)NC(=O)[C@H](CC(C)C)NC(=O)[C@H](CCC(=O)O)NC(=O)[C@H](CO)NC(=O)[C@H](C)NC(=O)[C@H](CCC(=O)O)NC(=O)CCCCCCCCCCCCCCCCC(=O)O)[C@@H](C)O)C(=O)NCC(=O)N[C@@H](CCCNC(=N)N)C(=O)N[C@@H](CC(C)C)C(=O)N[C@@H](CO)C(=O)N[C@@H](C)C(=O)N[C@@H](CCC(=O)O)C(=O)N[C@@H](CC(C)C)C(=O)N[C@@H](Cc1cnc[nH]1)C(=O)N[C@@H](CCC(=O)O)C(=O)N[C@@H](CC(C)C)C(=O)N[C@@H](C)C(=O)N[C@H](C(=O)N[C@@H](CC(C)C)C(=O)N1CCC[C@H]1C(=O)N[C@@H](CCCNC(=N)N)C(=O)N[C@H](C(=O)N[C@@H](CCC(=O)O)C(=O)N[C@H](C(=O)NCC(=O)N1CCC[C@H]1C(=O)N[C@@H](CCC(=O)O)C(=O)N[C@@H](CO)C(=O)N1CCC[C@H]1C(=O)O)[C@@H](C)O)[C@@H](C)O)[C@@H](C)O ({C18 diacid}-EASELSTAALGRLSAELHELATLPRTETGPESP-OH)	–	–	298 nM	–	–	–	–	0.045 nM	–	0.481 nM	–
CC(C)C[C@H](NC(=O)[C@H](CCC(=O)O)NC(=O)[C@H](Cc1cnc[nH]1)NC(=O)[C@H](CC(C)C)NC(=O)[C@H](CCC(=O)O)NC(=O)[C@H](C)NC(=O)[C@H](CO)NC(=O)[C@H](CC(C)C)NC(=O)[C@H](CCCNC(=N)N)NC(=O)CNC(=O)[C@H](CC(C)C)NC(=O)[C@@H](NC(=O)[C@H](C)NC(=O)[C@@H](NC(=O)[C@H](CO)NC(=O)[C@@H](NC(=O)[C@H](CCC(=O)O)NC(=O)[C@H](CO)NC(=O)[C@H](C)NC(=O)[C@H](CCC(=O)O)NC(=O)CCCCCCCCCCCCCCCCC(=O)O)C(C)C)[C@@H](C)O)C(C)C)C(=O)N[C@@H](C)C(=O)N[C@H](C(=O)N[C@@H](CC(C)C)C(=O)N1CCC[C@H]1C(=O)N[C@@H](CCCNC(=N)N)C(=O)N[C@H](C(=O)N[C@@H](CCC(=O)O)C(=O)N[C@H](C(=O)NCC(=O)N1CCC[C@H]1C(=O)N[C@@H](CCC(=O)O)C(=O)N[C@@H](CO)C(=O)N1CCC[C@H]1C(N)=O)[C@@H](C)O)[C@@H](C)O)[C@@H](C)O ({C18 diacid}-EASEVSTAVLGRLSAELHELATLPRTETGPESP-NH2)	≥ 200 µM	–	0.824 nM	≥ 200 µM	≥ 200 µM	–	≥ 200 µM	0.014 nM	≥ 200 µM	0.02 nM	≥ 200 µM

Further lines, results first:

solubility at 18 h [1]	solubility at 18 h [2]	IC50 [3]	solubility at 18 h [4]	solubility at 18 h [5]	solubility at 18 h [6]	solubility at 18 h [7]	EC50 (Calcitonin receptor)	solubility at 18 h [8]	EC50 [9]	solubility at 18 h [10]	SMILES
≥ 200 µM	≥ 200 µM	0.435 nM	≥ 200 µM	≥ 200 µM	≥ 200 µM	≥ 200 µM	0.013 nM	≥ 200 µM	0.01 nM	≥ 200 µM	CCCCCCCCCCCCCCCC(=O)N[C@@H](CCC(=O)O)C(=O)N[C@@H](C)C(=O)N[C@@H](CO)C(=O)N[C@@H](CCC(=O)O)C(=O)N[C@@H](CC(C)C)C(=O)N[C@@H](CO)C(=O)N[C@H](C(=O)N[C@@H](C)C(=O)N[C@@H](C)C(=O)N[C@@H](CC(C)C)C(=O)NCC(=O)N[C@@H](CCCNC(=N)N)C(=O)N[C@@H](CC(C)C)C(=O)N[C@@H](CO)C(=O)N[C@@H](C)C(=O)N[C@@H](CCC(=O)O)C(=O)N[C@@H](CC(C)C)C(=O)N[C@@H](Cc1cnc[nH]1)C(=O)N[C@@H](CCC(=O)O)C(=O)N[C@@H](CC(C)C)C(=O)N[C@@H](C)C(=O)N[C@H](C(=O)N[C@@H](CC(C)C)C(=O)N1CCC[C@H]1C(=O)N[C@@H](CCCNC(=N)N)C(=O)N[C@H](C(=O)N[C@@H](CCC(=O)O)C(=O)N[C@H](C(=O)NCC(=O)N1CCC[C@H]1C(=O)N[C@@H](CCC(=O)O)C(=O)N[C@@H](CO)C(=O)N1CCC[C@H]1C(N)=O)[C@@H](C)O)[C@@H](C)O)[C@@H](C)O)[C@@H](C)O (Palmitoyl-EASELSTAALGRLSAELHELATLPRTETGPESP-NH2)
≥ 200 µM	≥ 200 µM	0.812 nM	≥ 200 µM	≥ 200 µM	≥ 200 µM	≥ 200 µM	0.013 nM	–	0.032 nM	≥ 200 µM	CC(C)C[C@H](NC(=O)[C@H](CCC(=O)O)NC(=O)[C@H](Cc1cnc[nH]1)NC(=O)[C@H](CC(C)C)NC(=O)[C@H](CCC(=O)O)NC(=O)[C@H](C)NC(=O)[C@H](CO)NC(=O)[C@H](CC(C)C)NC(=O)[C@H](CCCNC(=N)N)NC(=O)CNC(=O)[C@H](CC(C)C)NC(=O)[C@@H](NC(=O)[C@H](C)NC(=O)[C@@H](NC(=O)[C@H](CO)NC(=O)[C@@H](NC(=O)[C@H](CCC(=O)O)NC(=O)[C@H](CO)NC(=O)[C@H](C)NC(=O)CC[C@H](NC(=O)CCCCCCCCCCCCCCCCC(=O)O)C(=O)O)C(C)C)[C@@H](C)O)C(C)C)C(=O)N[C@@H](C)C(=O)N[C@H](C(=O)N[C@@H](CC(C)C)C(=O)N1CCC[C@H]1C(=O)N[C@@H](CCCNC(=N)N)C(=O)N[C@H](C(=O)N[C@@H](CCC(=O)O)C(=O)N[C@H](C(=O)NCC(=O)N[C@@H](CO)C(=O)NCC(=O)N[C@@H](CO)C(=O)N1CCC[C@H]1C(N)=O)[C@@H](C)O)[C@@H](C)O)[C@@H](C)O ({C18 diacid-γGlu}-ASEVSTAVLGRLSAELHELATLPRTETGSGSP-NH2)
≥ 200 µM	≥ 200 µM	0.417 nM	≥ 200 µM	≥ 200 µM	–	≥ 200 µM	0.005 nM	≥ 200 µM	0.016 nM	≥ 200 µM	CC[C@H](C)[C@H](NC(=O)[C@H](C)NC(=O)[C@@H](NC(=O)[C@H](CO)NC(=O)[C@H](CC(C)C)NC(=O)[C@H](CCC(=O)O)NC(=O)[C@H](CO)NC(=O)[C@H](C)NC(=O)[C@H](CCC(=O)O)NC(=O)CCCCCCCCCCCCCCCCC(=O)O)[C@@H](C)O)C(=O)N[C@@H](CC(C)C)C(=O)NCC(=O)N[C@@H](CCCNC(=N)N)C(=O)N[C@@H](CC(C)C)C(=O)N[C@@H](CO)C(=O)N[C@@H](C)C(=O)N[C@@H](CCC(=O)O)C(=O)N[C@@H](CC(C)C)C(=O)N[C@@H](Cc1cnc[nH]1)C(=O)N[C@@H](CCC(=O)O)C(=O)N[C@@H](CC(C)C)C(=O)N[C@@H](C)C(=O)N[C@H](C(=O)N[C@@H](CC(C)C)C(=O)N1CCC[C@H]1C(=O)N[C@@H](CCCNC(=N)N)C(=O)N[C@H](C(=O)N[C@@H](CCC(=O)O)C(=O)N[C@H](C(=O)NCC(=O)N1CCC[C@H]1C(=O)N[C@@H](CCC(=O)O)C(=O)N[C@@H](CO)C(=O)N1CCC[C@H]1C(N)=O)[C@@H](C)O)[C@@H](C)O)[C@@H](C)O ({C18 diacid}-EASELSTAILGRLSAELHELATLPRTETGPESP-NH2)
